# Assay results as given in patent publication US11001615B2, “Mutated tau protein fragment and use thereof” (ADEL INC., priority 2016, dated 2021).
# Ends that are not written are not given here.
# Legend:
# Format in all cases: in vivo
# Tau-P301L dementia mice [1] = assay: Grip strength test
# Description: (§1) JNPL3 mice expressing Tau-P301L mutant gene were purchased from Taconic, and back-crossed with C57bl/6 mice for five generations in the experimental animal room of the Asan Institute for Life Sciences. Then, the mice were raised under a specific pathogen free (SPE) condition. For active immunization, the mice were administered, for six months starting from three months after birth at intervals of two weeks, two weeks, four weeks, four weeks, five weeks, four weeks, and one week in this order, the four modified tau protein fragments prepared in Preparation Example 1 together with keyhole limpet hemocyanin (KLH) as a carrier and an aluminum adjuvant. At this time, administration was carried out through intraperitoneal injection (IP injection). The dementia mice which were actively immunized by administration of the K280-ac fragment were designated as Tau-P301L-K280-ac.
# A grip strength test was performed to identify muscle strength of the mice. […] At this time, an iron bundle that weighs 40 g was used for the iron bundle. The mice produced in Preparation Example 2 were held by the tail end, and the forefeet of the mice were caused to be placed on the 40 g iron bundle so that the mice can grab the iron bundle. […] The time until the mice missed the iron bundle was measured and comparison was made for the respective mice.
# Tau-P301L dementia mice [2] = assay: Vertical grid test; conditions: normal mice 10 or shorter, Tau-P301L 5 or shorter
# Description: as §1
# A vertical grid test was performed on the mice raised in Preparation Example 2. […] Specifically, the mice were placed on the vertical grid device, and allowed to go up and down the vertical grid. The time until the mice dropped down from the grid was measured.
# Tau-P301L dementia mice [3] = assay: Water maze test; conditions: 5th day, platform removed; normal mice about 3, Tau-P301L about 1
# Description: as §1
# An underwater maze test was performed to evaluate a learning and memory ability of the mice. […] Specifically, the underwater maze test took a total of 5 days. The mice were trained for 4 days in a state where a platform and a visual cue for the platform location are placed.
# The learning was conducted by filling a swimming pool (1.4 m in diameter, 45 cm in depth) having a platform with water (29±0.5° C.) to a depth of about 26.5 cm, and then 1.5 L of whole milk powder was added to make water cloudy so that the mice can remember the platform with the cue only. Then, the mice were adapted to freely swim for 60 seconds and allowed to rest on the platform for 1 minute. The experiment was performed over a total of 12 times with 4 sets at three different starting positions. At the end of each test, 30 seconds of break time was given. At the end of one set, 30 to 45 minutes of break time was given.
# After 4 days of learning, the test was performed on the 5th day. In the experiment for evaluation, the platform was not placed, and the number of staying in the area where the platform has been placed was measured in order to identify whether the mice visit well the platform location using the cue only. The test time was set for the mice to arrive at the location where the platform had been placed within one minute. If the mice fail to arrive at the platform location within one minute, the mice were removed out of the swimming pool.
# [4] = Antibody production after primary and secondary boosting (vaccine comparison); conditions: compared with N-terminal fragment of tau protein
# Description: In addition, in order to identify whether the K280-ac fragment is effective as a vaccine, the N-terminal fragment and the K280-ac fragment of the tau protein having the amino acid sequence represented by SEQ ID NO: 31 were administered, and primary boosting and secondary boosting were performed. Then, these fragments were compared in terms of antibody production.
# Tau-P301L dementia mice [5] = assay: Rota-rod test; conditions: 5th day
# Description: as §1, with “Tau-P301L-K280-ac. […]” for “Tau-P301L-K280-ac.”
# Specifically, the test was intended to measure how long the mice are able to stay on a rotating rotor. The mice were trained for 4 days and a motor ability thereof was measured on the 5th day. The training was repeated three times a day, during which the time to stay on the rotor and the final rpm were measured while increasing the rpm of the rotor. On the 5th day, the experiment was conducted under the same condition except that a result was measured only once without repeating (FIGS. 14 and 15).
# Tau-P301L dementia mice [6] = assay: Forced swimming test; conditions: second day, 5 minutes
# Description: as §1
# A forced swimming test was conducted to identify a depression-ameliorating effect in the Tau-P301L dementia mice produced in Preparation Example 2. The experiment was conducted for a total of 2 days. […] An index to swim in water (Swimming/S), an index to climb up along the beaker wall (Climbing/C), and an index to float in water without any movement (Immobility/I) were respectively analyzed.
# Tau-P301L dementia mice [7] = assay: Immunohistochemical staining of brain tissues for tau proteins; conditions: brain tissue
# Description: as §1
# In order to identify a tauopathy-alleviating effect following administration of the K280-ac fragment, brain tissues of the Tau-P301L-K280-ac dementia mice, the P301L-K280-ac dementia mice, and the normal mice produced in Preparation Example 2 were extracted, and western blotting and immunohistochemical staining were performed.
# Tau-P301L dementia mice [8] = assay: Western blotting of brain tissues for synapse-related proteins; conditions: brain tissue
# Description: as §1
# In order to identify a synapse-improving effect following administration of the K280-ac fragment, brain tissues of the Tau-P301L-K280-ac dementia mice, the P301L-K280-ac dementia mice, and the normal mice produced in Preparation Example 2 were extracted, and western blotting was performed.
# Tau-P301L dementia mice [9] = assay: MR spectroscopy (MRS) of the hippocampus; conditions: hippocampus ROI; dementia mice about 50% decrease versus normal mice
# Description: as §1
# In order to identify a metabolic imaging index-improving effect following administration of the K280-ac fragment, MR spectroscopy (MRS) was performed on the Tau-P301L-K280-ac dementia mice, the P301L-K280-ac dementia mice, and the normal mice produced in Preparation Example 2. The hippocampus was designated as a region of interest (ROI) (FIG. 36).
# Tau-P301L dementia mice [10] = assay: Western blotting of brain tissues for GCP-II; conditions: brain tissue
# Description: as §1
# Glutamate carboxypeptidase-2 ([…], folate hydrolase 1) is a NAAG peptidase that degrades NAAG. There is a possibility that an increase in GCP-II is a cause for decreased NAAG. Thus, brain tissues of the Tau-P301L-K280-ac dementia mice, the P301L-K280-ac dementia mice, and the normal mice produced in Preparation Example 2 were extracted and western blotting was performed.
substance,measurement,setting,value
Val-Gln-Ile-Ile-Asn-Lys-Lys-Leu-Asp-Leu-Ser-Asn (VQIINK(Ac)KLDLSN) [K280-ac],measured time for grab strength,"Tau-P301L dementia mice [1]; 40 g iron bundle, normal mice 10 or shorter, Tau-P301L 5 or shorter",about 12 seconds
same,"grip strength, change versus controls",Tau-P301L dementia mice [1]; actively immunized Tau-P301L dementia mice,restored to that of the normal mice
same,measured time on the vertical grid,Tau-P301L dementia mice [2],10 s
same,number of arrivals,Tau-P301L dementia mice [3],about 3 times
same,antibody production,[4],higher antibody production than the N-terminal fragment
same,rota-rod rpm,Tau-P301L dementia mice [5],increased to levels which correspond to those for the normal mice
same,rota-rod time,Tau-P301L dementia mice [5],increased to levels which correspond to those for the normal mice
same,"depression-ameliorating effect (immobility, swimming, climbing)",Tau-P301L dementia mice [6],depression-ameliorating effect is exhibited
same,acetylated tau proteins,Tau-P301L dementia mice [7],decreased
same,phosphorylated tau proteins,Tau-P301L dementia mice [7],decreased
same,"expression level of synapse-related proteins such as PSD95, NMDA receptor, synaptophysin, and synapsin-1",Tau-P301L dementia mice [8],restored to that in the normal mice
same,N-acetyl-aspartyl-glutamic acid (NAAG),Tau-P301L dementia mice [9],restored
same,expression level of GCP-II,Tau-P301L dementia mice [10],decreased expression level of GCP-II which corresponds to that in the normal mice
